Key:
Axl = molecular target: T1, Axl (Homo sapiens, UniProt P30530); assay: LanthaScreen Eu kinase binding assay, Axl; details: Tracer 236
T1 construct: purchased Life Technologies
T1 sequence (P30530 26-894): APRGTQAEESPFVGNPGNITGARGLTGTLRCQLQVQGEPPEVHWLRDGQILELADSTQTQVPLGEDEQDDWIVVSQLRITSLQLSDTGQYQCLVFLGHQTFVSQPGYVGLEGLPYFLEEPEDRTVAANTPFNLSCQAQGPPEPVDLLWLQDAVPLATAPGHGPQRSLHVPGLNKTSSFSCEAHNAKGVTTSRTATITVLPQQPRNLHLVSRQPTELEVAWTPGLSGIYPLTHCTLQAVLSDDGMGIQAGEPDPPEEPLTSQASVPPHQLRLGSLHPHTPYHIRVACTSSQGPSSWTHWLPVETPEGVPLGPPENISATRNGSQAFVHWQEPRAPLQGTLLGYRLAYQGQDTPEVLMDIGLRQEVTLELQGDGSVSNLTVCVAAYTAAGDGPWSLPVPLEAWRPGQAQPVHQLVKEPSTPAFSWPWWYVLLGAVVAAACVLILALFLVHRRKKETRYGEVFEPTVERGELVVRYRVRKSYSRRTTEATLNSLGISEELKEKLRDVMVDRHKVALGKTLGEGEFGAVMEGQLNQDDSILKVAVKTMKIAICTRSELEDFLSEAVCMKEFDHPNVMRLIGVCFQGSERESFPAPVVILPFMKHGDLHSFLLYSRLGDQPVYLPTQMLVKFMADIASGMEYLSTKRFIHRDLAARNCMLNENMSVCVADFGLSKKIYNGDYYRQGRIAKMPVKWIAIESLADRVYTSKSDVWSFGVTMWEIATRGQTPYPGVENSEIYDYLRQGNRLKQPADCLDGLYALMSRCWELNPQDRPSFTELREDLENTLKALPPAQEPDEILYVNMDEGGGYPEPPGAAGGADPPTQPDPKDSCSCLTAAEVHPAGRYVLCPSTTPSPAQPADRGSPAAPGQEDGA

Mer = molecular target: T2, Mer (Homo sapiens, UniProt Q12866); assay: LanthaScreen Eu kinase binding assay, Mer; details: Tracer 236
T2 construct: purchased Life Technologies
T2 sequence (Q12866 21-999): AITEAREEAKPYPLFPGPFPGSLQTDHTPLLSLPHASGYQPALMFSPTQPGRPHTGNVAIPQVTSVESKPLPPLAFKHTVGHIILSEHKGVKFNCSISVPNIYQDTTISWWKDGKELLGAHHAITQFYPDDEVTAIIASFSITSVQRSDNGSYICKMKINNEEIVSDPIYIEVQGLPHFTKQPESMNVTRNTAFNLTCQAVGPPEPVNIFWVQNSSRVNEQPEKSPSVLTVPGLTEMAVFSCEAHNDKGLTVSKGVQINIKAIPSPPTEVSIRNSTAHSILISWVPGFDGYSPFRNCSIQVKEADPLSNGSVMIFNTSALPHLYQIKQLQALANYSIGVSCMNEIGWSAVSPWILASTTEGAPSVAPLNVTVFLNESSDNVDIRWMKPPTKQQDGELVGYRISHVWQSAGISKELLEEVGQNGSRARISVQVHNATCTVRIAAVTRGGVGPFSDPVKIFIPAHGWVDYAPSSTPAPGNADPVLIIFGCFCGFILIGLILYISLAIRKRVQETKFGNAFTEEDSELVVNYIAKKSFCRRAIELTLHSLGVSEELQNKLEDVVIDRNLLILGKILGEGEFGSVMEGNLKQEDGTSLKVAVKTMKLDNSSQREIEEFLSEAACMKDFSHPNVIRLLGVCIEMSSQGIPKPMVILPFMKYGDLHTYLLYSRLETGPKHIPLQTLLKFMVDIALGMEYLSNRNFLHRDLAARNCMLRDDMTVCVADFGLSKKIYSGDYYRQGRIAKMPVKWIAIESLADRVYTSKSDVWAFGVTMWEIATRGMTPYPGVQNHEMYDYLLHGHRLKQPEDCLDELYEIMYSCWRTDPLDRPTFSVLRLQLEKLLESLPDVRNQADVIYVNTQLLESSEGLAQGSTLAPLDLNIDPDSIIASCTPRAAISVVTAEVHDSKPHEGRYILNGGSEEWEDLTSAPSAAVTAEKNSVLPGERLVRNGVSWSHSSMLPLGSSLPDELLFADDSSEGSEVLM

HCC827/ER cells = assay: WST-1 cell viability assay in erlotinib-resistant cells; details: compound combined with Erlotinib at constant 1:1 ratio, 3 days, FBS 1%
Procedure: The killed cells were discarded and the remaining cells were cultured in a drug-free medium up to 80% confluence. Subsequently, cells were continuously exposed to increasing drug doses of up to 10 μM over a period of 8 months.
HCC827/ER cells were seeded in a 96-well plate with their respective media containing 10% FBS at 5000 cells/well. After seeding, the HCC827/ER cells were incubated for approximately 24 hours. […] The viability of the HCC827/ER cells was determined by adding WST-1 reagent according to Manufacturer's instructions (DoGenbio co., Ltd) and incubating for four hours. The plates were then read using an absorbance of 440 nm on Tecan Microplate reader (Infinite M200 pro, TECAN). The HCC827/ER cells' viability were calculated relative to vehicle (DMSO) control wells.

Structure (SMILES)	Kd (Axl) [nM]	Kd (Mer) [nM]	Combination effect of compound and erlotinib on inhibition activity in Erlotinib-resistant cell-line (HCC827/ER cells)
CCOc1cn(CCOC(F)F)nc1C(=O)Nc1ccc(Oc2ccnc3cc(OC)c(OC)cc23)cn1 [Compound 86]	< 100	< 100	
CCOc1cn(-c2c(C)cc(OC)cc2C)nc1C(=O)Nc1ccc(Oc2ccnc3cc(OC)c(OC)cc23)cn1 [Compound 92]	< 100	< 100	
CCOc1cn(C(C)CC#N)nc1C(=O)Nc1ccc(Oc2ccnc3cc(OC)c(OC)cc23)cn1 (centres unmarked) [Compound 81]	< 100	< 100	
CCOc1cn(C2CCCC2)nc1C(=O)Nc1ccc(Oc2ccnc3cc(OC)c(OC)cc23)cn1 [Compound 3]	< 100	< 100	
CCOc1cn(CCC#N)nc1C(=O)Nc1ccc(Oc2ccnc3cc(OC)c(OC)cc23)cn1 [Compound 80]	< 100	< 100	
CCOc1cn(-c2ncc(N)cn2)nc1C(=O)Nc1ccc(Oc2ccnc3cc(OC)c(OC)cc23)cn1 [Compound 93]	< 100	< 100	
CCOc1cn(-c2ccccn2)nc1C(=O)Nc1ccc(Oc2ccnc3cc(OC)c(OC)cc23)cn1 [Compound 4]	< 100	< 100	
CCOc1cn(-c2cnccc2C)nc1C(=O)Nc1ccc(Oc2ccnc3cc(OC)c(OC)cc23)cn1 [Compound 79]	< 100	< 100	synergistic effect
CCOc1cn(-c2ccc(F)cc2C)nc1C(=O)Nc1ccc(Oc2ccnc3cc(OC)c(OC)cc23)c(Cl)c1 [Compound 82]	< 100	< 100	
CCOc1cn(-c2cccnn2)nc1C(=O)Nc1ccc(Oc2ccnc3cc(OC)c(OC)cc23)cn1 [Compound 5]	< 100	< 100	
CCOc1cn(-c2cccnc2)nc1C(=O)Nc1ccc(Oc2ccnc3cc(OC)c(OC)cc23)cc1F [Compound 85]	< 100	< 100	
CCOc1cn(-c2ccc(F)cc2)nc1C(=O)Nc1ccc(Oc2ccnc3cc(OC)c(OC)cc23)cn1 [Compound 89]	< 100	< 100	
CCOc1cn(-c2ccc(Cl)cc2C)nc1C(=O)Nc1ccc(Oc2ccnc3cc(OC)c(OC)cc23)cn1 [Compound 87]	< 100	< 100	
CCOc1cn(C2CCOC2)nc1C(=O)Nc1ccc(Oc2ccnc3cc(OC)c(OC)cc23)cn1 (centres unmarked) [Compound 76]	< 100	< 100	

— US10934274B2, “Quinoline derivatives as TAM RTK inhibitors” (Qurient Co., Ltd., priority 2015, dated 2021)
